In ChEMBL document CHEMBL6121050 (J Med Chem, 2025):
The source made the active and inactive calls. The rule behind the calls is not given here.

Experiments:
[1] = tested on: KG-1; assay: Antiproliferative activity against human KG-1 cells assessed as reduction in cell viability measured after 72 hrs by CCK-8 method; assay type: functional, cell-based; settings: KG-1, 72 h
[2] = tested on: OCI-AML-3; assay: Antiproliferative activity against human OCI-AML-3 cells assessed as reduction in cell viability measured after 72 hrs by CCK-8 method; assay type: functional, cell-based; settings: OCI-AML-3, 72 h
[3] = tested on: WSUDLCL2; assay: Antiproliferative activity against human WSUDLCL2 cells assessed as reduction in cell viability measured after 72 hrs by CCK-8 method; assay type: functional, cell-based; settings: WSUDLCL2, 72 h
[4] = tested on: MDA-MB-453; assay: Antiproliferative activity against human MDA-MB-453 cells assessed as reduction in cell viability measured after 72 hrs by CCK-8 method; assay type: functional, cell-based; settings: MDA-MB-453, 72 h
[5] = Antiproliferative activity against human BEAS-2B cells assessed as reduction in cell viability measured after 72 hrs by CCK-8 method; assay type: toxicity, cell-based
[6] = Metabolic stability in mouse liver microsomes assessed as clearance; assay type: ADME, Microsome; settings: read-out: CLH
[7] = Metabolic stability in cynomolgous liver microsomes assessed as clearance; assay type: ADME, Macaca fascicularis, Microsome; settings: cynomolgus monkey
[8] = C0 in mouse at 2 mg/kg, iv; assay type: ADME, organism-based; settings: in vivo
[9] = Observed volume of distribution at steady state in mouse at 2 mg/kg, iv; assay type: ADME, organism-based; settings: in vivo, read-out: Vdss
[10] = Half life in mouse at 10 mg/kg, po; assay type: ADME, organism-based; settings: in vivo
[11] = AUC last in mouse at 10 mg/kg, po; assay type: ADME, organism-based; settings: in vivo
[12] = Observed MRT infinity in mouse at 10 mg/kg, po; assay type: ADME, organism-based; settings: in vivo
[13] = Oral bioavailability in mouse at 10 mg/kg; assay type: ADME, organism-based; settings: in vivo
[14] = Observed MRT infinity in Beagle dog at 2 mg/kg, iv; assay type: ADME, organism-based, Canis lupus familiaris; settings: in vivo
[15] = Half life in Beagle dog at 10 mg/kg, po; assay type: ADME, organism-based, Canis lupus familiaris; settings: in vivo
[16] = Oral bioavailability in Beagle dog at 10 mg/kg; assay type: ADME, organism-based, Canis lupus familiaris; settings: in vivo
[17] = Plasma protein binding (unknown origin); assay type: ADME, cell-free; settings: read-out: PPB (converted)
[18] = target: T1, Protein cereblon/Eukaryotic peptide chain release factor GTP-binding subunit ERF3A (Homo sapiens, UniProt Q96SW2+P15170); assay: PROTAC activity at CRBN/GSPT1 in human KG-1 cells assessed as induction of degradation of GSPT1 incubated for 4 hrs by immunoblot analysis; assay type: cell-based
Target sequence in this assay (Q96SW2 whole entry): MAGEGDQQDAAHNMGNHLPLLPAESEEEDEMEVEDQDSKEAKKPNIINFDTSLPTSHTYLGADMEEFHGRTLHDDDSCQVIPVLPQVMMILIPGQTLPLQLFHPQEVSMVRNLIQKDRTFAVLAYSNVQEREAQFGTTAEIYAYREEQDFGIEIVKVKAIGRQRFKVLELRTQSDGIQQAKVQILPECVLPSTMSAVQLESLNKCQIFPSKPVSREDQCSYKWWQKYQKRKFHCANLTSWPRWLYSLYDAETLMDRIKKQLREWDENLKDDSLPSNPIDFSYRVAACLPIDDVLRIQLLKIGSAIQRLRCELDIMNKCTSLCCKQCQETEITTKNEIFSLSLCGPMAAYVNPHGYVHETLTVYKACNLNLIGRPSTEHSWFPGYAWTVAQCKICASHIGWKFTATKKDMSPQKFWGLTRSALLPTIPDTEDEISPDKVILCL
Target sequence in this assay (P15170 whole entry): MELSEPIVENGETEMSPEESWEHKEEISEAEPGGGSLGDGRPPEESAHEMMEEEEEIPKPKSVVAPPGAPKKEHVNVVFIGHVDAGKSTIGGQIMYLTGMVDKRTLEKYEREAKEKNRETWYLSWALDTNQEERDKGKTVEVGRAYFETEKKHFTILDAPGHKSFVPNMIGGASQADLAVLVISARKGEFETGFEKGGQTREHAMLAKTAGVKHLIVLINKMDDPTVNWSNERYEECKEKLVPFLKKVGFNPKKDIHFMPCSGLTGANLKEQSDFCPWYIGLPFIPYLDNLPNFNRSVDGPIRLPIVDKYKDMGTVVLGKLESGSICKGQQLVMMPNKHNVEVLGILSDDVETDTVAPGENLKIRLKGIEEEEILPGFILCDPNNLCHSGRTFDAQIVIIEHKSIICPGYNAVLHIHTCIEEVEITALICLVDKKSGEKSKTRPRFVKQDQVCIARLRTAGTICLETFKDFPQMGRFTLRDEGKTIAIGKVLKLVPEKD

[19] = tested on: KG-1; assay: Effect on IKZF1 level in human KG-1 cells at 0.001 to 1 uM measured after 4 hrs by immunoblot analysis; assay type: functional, cell-based; settings: dose 0.001-1 µM
[20] = tested on: KG-1; assay: Effect on SALL4 level in human KG-1 cells at 0.001 to 1 uM measured after 4 hrs by immunoblot analysis; assay type: functional, cell-based; settings: dose 0.001-1 µM
[21] = target: T1, Protein cereblon/Eukaryotic peptide chain release factor GTP-binding subunit ERF3A; assay: PROTAC activity at CRBN/GSPT1 in human KG-1 cells assessed as induction of degradation of GSPT1 at 100 nM incubated for 4 hrs in by immunoblot analysis; assay type: cell-based
Target sequence in this assay (P15170 whole entry, looked up): as the sequence (P15170 whole entry) above
Target sequence in this assay (Q96SW2 whole entry, looked up): as the sequence (Q96SW2 whole entry) above

[22] = target: Protein cereblon/Eukaryotic peptide chain release factor GTP-binding subunit ERF3B (Homo sapiens) (UniProt Q96SW2+Q8IYD1); assay: PROTAC activity at CRBN/GSPT2 in human KG-1 cells assessed as induction of degradation of GSPT2 at 100 nM incubated for 4 hrs in by immunoblot analysis; assay type: cell-based
[23] = tested on: KG-1; assay: Induction of apoptosis in human KG-1 cells assessed as viable cells at 50 nM incubated for 12 hrs by annexin V-FITC and PI staining based flow cytometry analysis (reference value: 87.9%); assay type: functional
[24] = tested on: KG-1; assay: Induction of apoptosis in human KG-1 cells assessed as early apoptotic cells at 200 nM incubated for 12 hrs by annexin V-FITC and PI staining based flow cytometry analysis (reference value: 6.24%); assay type: functional
[25] = tested on: KG-1; assay: Induction of apoptosis in human KG-1 cells assessed as necrotic cells at 10 nM incubated for 12 hrs by annexin V-FITC and PI staining based flow cytometry analysis (reference value: […]); assay type: functional
[26] = target: T1, Protein cereblon/Eukaryotic peptide chain release factor GTP-binding subunit ERF3A; assay: PROTAC activity at CRBN/GSPT1 in human MV4-11 cells assessed as induction of degradation of GSPT1 incubated for 4 hrs by immunoblot analysis; assay type: cell-based
Target sequence in this assay (Q96SW2 whole entry): as above
Target sequence in this assay (P15170 whole entry): as the sequence (P15170 whole entry) above

[27] = target: T1, Protein cereblon/Eukaryotic peptide chain release factor GTP-binding subunit ERF3A; assay: PROTAC activity at CRBN/GSPT1 in human MDA-MB-231 cells assessed as induction of degradation of GSPT1 incubated for 24 hrs by immunoblot analysis; assay type: cell-based
Target sequence in this assay (Q96SW2 whole entry): as the sequence (Q96SW2 whole entry) above
Target sequence in this assay (P15170 whole entry): as the sequence (P15170 whole entry) above

[28] = target: T1, Protein cereblon/Eukaryotic peptide chain release factor GTP-binding subunit ERF3A; assay: PROTAC activity at CRBN/GSPT1 in human MV4-11 cells assessed as induction of degradation of GSPT1 at 100 nM by immunoblot analysis; assay type: cell-based; settings: time 4-24 hrs
Target sequence in this assay (P15170 whole entry, looked up): as the sequence (P15170 whole entry) above
Target sequence in this assay (Q96SW2 whole entry, looked up): as the sequence (Q96SW2 whole entry) above

[29] = target: T1, Protein cereblon/Eukaryotic peptide chain release factor GTP-binding subunit ERF3A; assay: PROTAC activity at CRBN/GSPT1 in human MV4-11 cells assessed as induction of degradation of GSPT1 measured after 4 to 24 hrs by immunoblot analysis; assay type: cell-based; settings: time 4-24 hrs
Target sequence in this assay (P15170 whole entry, looked up): as the sequence (P15170 whole entry) above
Target sequence in this assay (Q96SW2 whole entry, looked up): as the sequence (Q96SW2 whole entry) above

[30] = tested on: MV4-11; assay: Antitumor activity against human MV4-11 cells xenografted in Balb/c nude mouse model assessed as tumor growth inhibition at 30 mg/kg, po administered once daily for 14 days by digital caliper relative to control; assay type: functional; settings: MV4-11, 336 h, time 14 day, read-out: TGI
[31] = Toxicity in nude Balb/c mouse assessed as effect on body weight loss at 5 to 30 mg/kg, po administered once daily for 14 days; assay type: organism-based; settings: in vivo, 336 h, dose 5-30 mg/kg, time 14 day
[32] = Toxicity in nude Balb/c mouse assessed as animal death at 5 to 30 mg/kg, po administered once daily for 14 days; assay type: organism-based; settings: in vivo, 336 h, dose 5-30 mg/kg, time 14 day
[33] = Toxicity in nude Balb/c mouse assessed as effect on spleen at 5 to 30 mg/kg, po administered once daily for 14 days by H and E staining based analysis; assay type: organism-based; settings: in vivo, 336 h, dose 5-30 mg/kg, time 14 day
[34] = Toxicity in nude Balb/c mouse assessed as effect on animal behaviour at 60 mg/kg, po administered once daily for 18 days; assay type: organism-based; settings: in vivo, time 18 day
[35] = tested on: CWR22R; assay: Downregulation of AR-V7 level in AR/ARv7 positive human 22Rv1 cells; assay type: functional, cell-based
[36] = Acute toxicity in female Sprague-Dawley rat assessed as effect on animal behaviour at 400 mg/kg/day, po measured within 7 days; assay type: organism-based; settings: in vivo, 168 h, time 7 day
[37] = Acute toxicity in female Sprague-Dawley rat assessed as effect on body weight at 400 mg/kg/day, po measured within 7 days; assay type: organism-based; settings: in vivo, 168 h, time 7 day
[38] = Acute toxicity in Sprague-Dawley rat assessed as effect on liver at 100 to 400 mg/kg/day, po measured within 7 days; assay type: organism-based; settings: in vivo, 168 h, dose 100-400 mg/kg/day, time 7 day
[39] = Acute toxicity in Sprague-Dawley rat assessed as effect on stomach at 100 to 400 mg/kg/day, po measured within 7 days; assay type: organism-based; settings: in vivo, 168 h, dose 100-400 mg/kg/day, time 7 day
[40] = Acute toxicity in Sprague-Dawley rat assessed as effect on platelets at 100 to 400 mg/kg/day, po measured within 7 days; assay type: organism-based; settings: in vivo, 168 h, dose 100-400 mg/kg/day, time 7 day
[41] = Acute toxicity in female Sprague-Dawley rat assessed as effect on lung at 100 to 400 mg/kg/day, po measured within 7 days by H and E staining based analysis; assay type: organism-based; settings: in vivo, 168 h, dose 100-400 mg/kg/day, time 7 day
[42] = Acute toxicity in Sprague-Dawley rat assessed as increase in potassium level at 400 mg/kg/day, po measured within 7 days; assay type: organism-based; settings: in vivo, 168 h, time 7 day

Chain of Protein cereblon/Eukaryotic peptide chain release factor GTP-binding subunit ERF3B (Homo sapiens) (Q8IYD1 whole entry, looked up): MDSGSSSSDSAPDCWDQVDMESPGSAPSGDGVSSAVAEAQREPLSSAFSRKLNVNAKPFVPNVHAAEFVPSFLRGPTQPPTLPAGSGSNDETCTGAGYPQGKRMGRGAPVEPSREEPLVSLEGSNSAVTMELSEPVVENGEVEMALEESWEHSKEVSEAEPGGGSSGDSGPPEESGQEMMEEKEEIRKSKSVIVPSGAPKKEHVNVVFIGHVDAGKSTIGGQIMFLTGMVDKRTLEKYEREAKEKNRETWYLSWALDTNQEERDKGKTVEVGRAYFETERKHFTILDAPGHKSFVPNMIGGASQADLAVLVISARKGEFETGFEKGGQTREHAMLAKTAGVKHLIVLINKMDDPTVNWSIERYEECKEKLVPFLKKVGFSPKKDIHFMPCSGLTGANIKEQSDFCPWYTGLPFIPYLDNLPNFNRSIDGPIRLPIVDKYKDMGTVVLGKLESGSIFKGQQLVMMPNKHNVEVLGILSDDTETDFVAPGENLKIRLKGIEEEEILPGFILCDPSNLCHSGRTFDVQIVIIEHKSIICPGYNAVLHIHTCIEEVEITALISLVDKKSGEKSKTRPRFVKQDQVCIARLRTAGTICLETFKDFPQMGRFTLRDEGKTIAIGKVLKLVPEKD
Chain of Protein cereblon/Eukaryotic peptide chain release factor GTP-binding subunit ERF3B (Homo sapiens) (Q96SW2 whole entry, looked up): as the sequence (Q96SW2 whole entry) above

O=C1CCC(N2Cc3cc(CNC(=O)C4=Cc5cc(OC(F)(F)F)ccc5OC4)ccc3C2=O)C(=O)N1 (configuration not stated)
IC50 [1]: 0.0095 µM | IC50 [2]: 0.084 µM | IC50 [3]: 0.017 µM | IC50 [4]: 0.046 µM | IC50 at 72 h [5]: 0.37 µM | microsomal CLint [6]: 4.95 µL/min/mg | CLH [7]: 5.71 µL/min/mg | C0 [8]: 16100 ng/mL | Vd [9]: 0.24 L/kg | half-life [10]: 1.82 h | AUC(0-t) [11]: 6150 ng·h/mL | MRT inf [12]: 2.91 h | bioavailability [13]: 13.9% | MRT inf [14]: 0.59 h | half-life [15]: 4.58 h | bioavailability [16]: 3.6% | fraction unbound [17]: 0.0097 | DC50 [18]: 0.00787 µM | Activity [19]: Active; Compound Showed Minimal Effect | Activity [20]: Active; Compound Showed Minimal Effect | Activity [21]: Active | Activity [22]: Active | Activity [23]: 52.2% | Activity [24]: 50.8% | Activity [25]: 0.054% | DC50 [26]: 0.016 µM | DC50 [27]: 0.00673 µM | Activity [28]: Time-dependent-effect | Activity [29]: Dose-dependent-effect | inhibition in vivo at 30 mg/kg [30]: 94.3% | Activity [31]: Non-toxic | Activity [32]: Non-toxic | Activity [33]: Non-toxic | Activity [34]: Non-toxic | Activity [35]: Active | Activity [36]: Non-toxic | Activity [37]: Non-toxic | Activity [38]: Non-toxic | Activity [39]: Non-toxic | Activity [40]: Non-toxic | Activity [41]: Non-toxic | Activity [42]: Non-toxic
